Literature values as cited in US10125164B2, “Process for preparing D-arginyl-2,6-dimethyl-L-tyrosyl-L-lysyl-L-phenylalaninamide” (FLAMMA S.P.A., priority 2014, dated 2018).
Where a SMILES comes first, the peptide text is derived from it. [ ]: non-standard residue; d: D form. Dmt = Cc1cc(O)cc(C)c1C[C@H](N)C(=O)O

Key:
[1] = system: mouse pancreatic islets; conditions: 3 mg/kg i.p. qd for 2 weeks
[2] = system: SH-SY5Y neuronal cell line; conditions: compound <1 nM
[3] = molecular target: mu-opioid receptor (Homo sapiens, UniProt P35372)
[4] = system: N2A neuronal cell line; conditions: compound <1 nM
[5] = system: G93A mouse model of amyotrophic lateral sclerosis; conditions: 5 mg/kg/day i.p. starting at 30 days of age
[6] = system: inner mitochondrial membrane
[7] = system: unilateral ureteral obstruction; conditions: rats, intraperitoneal 1 and 3 mg/kg, 1 day prior to obstruction and every day thereafter for 14 days

Chain of mu-opioid receptor (P35372 whole entry): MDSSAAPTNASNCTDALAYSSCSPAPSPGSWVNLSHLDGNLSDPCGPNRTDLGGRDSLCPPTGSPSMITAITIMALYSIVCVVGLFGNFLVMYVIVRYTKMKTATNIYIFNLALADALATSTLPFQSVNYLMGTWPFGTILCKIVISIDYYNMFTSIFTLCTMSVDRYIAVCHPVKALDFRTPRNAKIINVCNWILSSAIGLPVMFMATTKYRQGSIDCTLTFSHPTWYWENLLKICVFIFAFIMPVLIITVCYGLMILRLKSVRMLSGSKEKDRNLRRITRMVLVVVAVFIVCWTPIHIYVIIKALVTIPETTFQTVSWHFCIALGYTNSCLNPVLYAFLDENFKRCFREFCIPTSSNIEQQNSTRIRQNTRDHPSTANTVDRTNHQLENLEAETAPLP

SMILES: Cc1cc(O)cc(C)c1C[C@H](NC(=O)[C@H](N)CCCNC(=N)N)C(=O)N[C@@H](CCCCN)C(=O)N[C@@H](Cc1ccccc1)C(N)=O [D-Arginyl-2,6-dimethyl-L-tyrosyl-L-lysyl-L-phenylalaninamide] (H-[dR][Dmt]KF-NH2)
- apoptosis in pancreatic islets caused by streptozotocin [1]: prevented
- insulin reduction in pancreatic islets caused by streptozotocin [1]: prevented
- intracellular reactive oxygen species [2]: significantly reduced
- mitochondrial potential [2]: increased
- tBHP-induced apoptosis [2]: prevented
- mu-opioid receptor agonist activity [3]: does not have mu-opioid receptor agonist activity
- intracellular reactive oxygen species [4]: significantly reduced
- mitochondrial potential [4]: increased
- tBHP-induced apoptosis [4]: prevented
- disease onset [5]: significant delay
- antioxidant activity [6]: showed antioxidant activity
- interstitial fibrosis [7]: significantly decreased
- macrophage infiltration [7]: significantly decreased
- tubular damage [7]: significantly decreased
